Consider 80 compounds from the METLIN SMRT retention time set (Domingo-Almenara et al. 2019).

A short description of this data set: gradient 5% acetonitrile 3 min, to 50% in 2 min, to 85% in 15 min, held 3 min, 100 µL/min. Conditions: column: Zorbax Extend-C18 2.1 x 50 mm; eluents: water / acetonitrile, 0.1% formic acid. In a few lines:
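Retention times come from adduct peaks that were picked computationally and then checked by hand. The standards, pure and pooled in mixtures of ~100 molecules, were run on a Zorbax Extend-C18 column (2.1 × 50 mm, 1.8 μm) at 100 μL/min with water and acetonitrile, each with 0.1% formic acid. Detection was by quadrupole time-of-flight mass spectrometry in positive and negative ionization mode, with a dead volume of 40 μL and a dwell volume of 900 μL.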
Compound `CCn1cc(-c2nc(CC(=O)NCc3ccc(C)o3)cs2)c2cccnc21` yielded an RP-LC retention time of 912 s.

Turning to `COc1ccc(-c2ccnn2-c2ccc(SCc3ccccc3)nn2)cc1`, the RP-LC retention time was found to be 1320 s.

Regarding `Cc1cccc(NC(=O)N2[C@H]3CC[C@@H]2c2cnc(C)nc2C3)c1`, the RP-LC retention time was 663 s.

Compound `COc1ccc(-c2nc3cnccn3c2Nc2ccccc2C)cc1OC` registered an RP-LC retention time of 793 s.

`Nc1ccc(CC(CC(=O)O)C(=O)O)cc1` (stereo not given) yielded an RP-LC retention time of 850 s.

Compound `N#Cc1ccc(CN2CCC3(CCC3O)CC2)cc1` (stereo not given) yielded an RP-LC retention time of 570 s.

The compound `COc1cccc(N2C(=O)C3N=NN(Cc4nc(-c5ccc(C)cc5)no4)C3C2=O)c1` (stereo not given) showed an RP-LC retention time of 990 s.

For `Fc1ccc(Nc2c(-c3ccc(Br)cc3)nc3cnccn23)cc1`, the RP-LC retention time is 980 s.

`CNC(=O)N1CC2(CCCCC2)CC1COCc1ccccc1` (stereo not given): the RP-LC retention time is 1060 s.

Take `CCOc1cc(=O)n2c(c1C(=O)NC1CCCCC1)CCCCC2`: the RP-LC retention time turned out to be 734 s.

`Cc1ccc(NC(=O)CN2C(=O)CC(C)S(=O)(=O)c3ccccc32)cc1Cl` (stereo not given) registered an RP-LC retention time of 894 s.

Compound `COc1cccc(CNC(=O)C2(C)CCN(C(=O)Nc3ccccc3C(F)(F)F)CC2)c1` displayed an RP-LC retention time of 806 s.

In turn, `CC(C)(C)C(=O)NCc1cccnc1-c1ccc(F)cc1` gave an RP-LC retention time of 614 s.

For `Cc1cc(C(=O)N2CCC(N3C(=O)C4(CCCC4)C3c3scnc3C)CC2)n(C)n1` (stereo not given), the RP-LC retention time was 691 s.

As to `O=C(Nc1ccc(Oc2ccc(NC(=O)Nc3ccccc3Cl)cc2)cc1)Nc1ccccc1Cl`, the RP-LC retention time stood at 1250 s.

Take `COc1cccc(Cn2cnc3c(-c4ccc(F)cc4)csc3c2=O)c1`: the RP-LC retention time is 1050 s.

For `Cc1nnc(-c2ccc3ccn(CC(=O)Nc4cccc(C#N)c4)c3c2)o1`, the RP-LC retention time was 798 s.

`CCc1ccc(NC(=O)C2CCN(S(=O)(=O)c3ccc4c(c3)NC(=O)C(CC)O4)CC2)cc1` (stereo not given) showed an RP-LC retention time of 963 s.

Regarding `CCOC(=O)N1CCC2(CC1)N=C(c1ccc(Cl)cc1)CC(c1cccc(OC)c1O)N2` (stereo not given), the RP-LC retention time stood at 781 s.

`Cc1ccc(NC(=O)Cn2c(C)cc(-c3nnc(C)o3)c2C)c(Cl)c1` returned an RP-LC retention time of 835 s.

As for `CCCn1c2ccccc2c2cnn(CC(=O)NCCN3CC(C)CC(C)C3)c(=O)c21` (stereo not given), the RP-LC retention time was determined as 701 s.

Take `CC(C)c1noc(-c2ccnc(-n3cnc(C(=O)N4CCCC4)c3)c2)n1`: the RP-LC retention time came out at 616 s.

Consider `N#Cc1ncc(Cl)c2ccccc12`, for which the RP-LC retention time stood at 1020 s.

`CCCN(C(=O)c1ccc(C)cc1)c1nc(-c2ccccc2)cs1` had an RP-LC retention time of 809 s.

`Fc1ccc(-c2noc(Cc3nnc(-c4ccc(Cl)cc4)o3)n2)cc1` showed an RP-LC retention time of 1070 s.

With `Cc1oc(C2CCN(C(=O)Nc3ccccc3Cl)CC2)nc1C(=O)N(C)C`, the RP-LC retention time came to 691 s.

On to `O=C(Cn1cnc2cc3c(cc21)OCCO3)Nc1ccc2c(c1)OCCCO2`, for which the RP-LC retention time is 622 s.

Compound `CN1C(=O)C2CCCCN2c2ccc(C(=O)NCCN3CCOCC3)cc21` (stereo not given) registered an RP-LC retention time of 582 s.

Turning to `CC(C)CN1C(=O)c2cccn2CC1C(=O)NCCCN1CCN(C)CC1` (stereo not given), the RP-LC retention time was 548 s.

Compound `Cc1ccc(S(=O)Cc2ccc(C(=O)N3CCN(c4ccccn4)CC3)o2)cc1` (stereo not given) displayed an RP-LC retention time of 587 s.

With `COc1ccc(S(=O)(=O)Nc2ccc(-c3cn4ccc(C)nc4n3)cc2)cc1C`, the RP-LC retention time came to 661 s.

`Cc1cc(C)cc(NS(=O)(=O)c2cc3n(c2)CCCNC3=O)c1` yielded an RP-LC retention time of 678 s.

Take `CCOc1ccccc1NS(=O)(=O)c1ccc(-c2c(C)noc2C)cc1`: the RP-LC retention time is 978 s.

The compound `Cc1cc(C)n(-c2ccc(N3CCC(C(=O)NCc4ccc5c(c4)OCO5)CC3)nn2)n1` returned an RP-LC retention time of 642 s.

Take `COc1ccc(C(=O)N(Cc2cc(OC)c(OC)c(OC)c2)CC2CCCO2)cc1` (stereo not given): the RP-LC retention time came out at 810 s.

Take `COc1ccc(C(=O)Nc2nc3c(s2)CCc2cc(OC)ccc2-3)cc1`: the RP-LC retention time came out at 1080 s.

`Cc1cc(C(=O)N2C[C@@H](C)[C@H](c3nc(-c4ccccc4)no3)C2)n[nH]1` came in with an RP-LC retention time of 804 s.

`CCOC(=O)c1nc(Nc2ccc(F)cc2Cl)c2ccccc2n1` displayed an RP-LC retention time of 890 s.

For `CCOc1ccc(S(=O)(=O)N2CCC(c3noc(-c4ccc(F)cc4)n3)CC2)cc1`, the RP-LC retention time is 1120 s.

Compound `Cc1ccccc1NS(=O)(=O)c1cn(CC(C)C)c2ncccc12` displayed an RP-LC retention time of 976 s.

For the compound `CC1(C)N=C(N)N=C(N)N1c1ccc(CCCCc2ccc(Cl)cc2Cl)cc1`, the RP-LC retention time worked out at 878 s.

Regarding `COC(=O)c1cn(CC(=O)N2CCc3ccccc3C2)c2ccccc12`, the RP-LC retention time amounted to 964 s.

In the case of `Cc1ccn2c(NC(=O)CC(C)(C)C)c(-c3ccccc3)nc2c1`, the RP-LC retention time was found to be 666 s.

Take `O=C(C1CCN(c2cnc3nccnc3c2)CC1)N1CCN(C2CCCCC2)CC1`: the RP-LC retention time is 572 s.

As to `CCCNc1cc(N2CCC(CCC(=O)NCc3ccccn3)CC2)ncn1`, the RP-LC retention time was 556 s.

Consider `Cn1nc(C2CCN(S(=O)(=O)c3cc(F)cc(F)c3)CC2)n(C2CCCC2)c1=O`, for which the RP-LC retention time was 893 s.

In the case of `CN1C(=O)CCc2cc(NC(=O)C3CCCCC3)ccc21`, the RP-LC retention time worked out at 752 s.

The compound `CCOc1ccccc1-c1noc(CN2C(=O)COc3cc(C)ccc32)n1` returned an RP-LC retention time of 1050 s.

`CC(=O)Nc1ccc(NC(=O)Cn2cccc(-c3nc(-c4ccccc4)no3)c2=O)cc1` showed an RP-LC retention time of 694 s.

Consider `O=C(Cc1cccs1)Nc1nnc(SCC(=O)N2CCCc3ccccc32)s1`, for which the RP-LC retention time is 805 s.

For `NC(=O)C1CCN(c2oc(-c3ccccc3Cl)nc2S(=O)(=O)c2ccccc2)CC1`, the RP-LC retention time was determined as 765 s.

Turning to `CCOC(=O)c1c(C)oc2nc(C)nc(N3CCN(c4ccccc4F)CC3)c12`, the RP-LC retention time came out at 1210 s.

For `O=C(NCc1ccco1)C1CCN(c2ncccc2-c2nc(-c3ccccc3)no2)CC1`, the RP-LC retention time came to 964 s.

Compound `Cc1nc2c(c(C)nn2C(C)(C)C)c(C)c1CCC(=O)N1CCN(c2ccccn2)CC1` registered an RP-LC retention time of 731 s.

The compound `CCOC(=O)c1cccc(NC(=O)C2CCN(S(=O)(=O)c3cn(C)cn3)CC2)c1` came in with an RP-LC retention time of 735 s.

`CCOc1ccc(NC(=O)c2cnc3c(c2)c(=O)n(C)c(=O)n3C)cc1`: the RP-LC retention time came out at 704 s.

With `CC(C)c1cc(C(=O)Nc2ccc(F)c(Cl)c2)nn1C1CCS(=O)(=O)C1` (stereo not given), the RP-LC retention time came to 997 s.

Compound `COCc1cc(=O)n(CC(=O)Nc2ccc(OC)c(OC)c2)c(N2CCOCC2)n1` had an RP-LC retention time of 702 s.

`O=C(CSc1nnc2scc(-c3ccc(Cl)cc3)n12)NCC1CCCO1` (stereo not given) returned an RP-LC retention time of 675 s.

For the compound `COc1ccc(Cl)cc1S(=O)(=O)N1CCC(CN2CCCCC2)CC1`, the RP-LC retention time stood at 584 s.

Regarding `Cc1ccnc(Nc2nc(C)c3ccccc3n2)n1`, the RP-LC retention time was 580 s.

Compound `CC1Oc2ccccc2N(Cc2nc(-c3ccc(Cl)cc3)no2)C1=O` (stereo not given) displayed an RP-LC retention time of 1160 s.

Regarding `COc1ccc(Cc2cnc(NC(=O)C3COc4ccccc4C3)s2)cc1` (stereo not given), the RP-LC retention time turned out to be 952 s.

`Cc1ccc(N2CCC(C(=O)Nc3ccc4c(c3)Cc3ccccc3-4)CC2)nn1` registered an RP-LC retention time of 608 s.

`O=C(Cc1ccccc1Cl)Nc1nnc(-c2ccc(OC(F)(F)F)cc2)o1` showed an RP-LC retention time of 896 s.

The compound `Brc1ccc(Nc2nc(-c3ccccc3)cs2)nc1` gave an RP-LC retention time of 1210 s.

In turn, `CCC(=O)N1c2ccc(S(=O)(=O)N3CCCCC3)cc2CC1C(=O)NCc1ccc(N(C)C)cc1` (stereo not given) gave an RP-LC retention time of 691 s.

`CC(=O)N1c2ccc(S(=O)(=O)N3CCCC3)cc2CC1C(=O)NCCN1CCCCCC1` (stereo not given) displayed an RP-LC retention time of 630 s.

On to `CC1=C(c2ccc(F)cc2)S(=O)(=O)N=C1N1CCCN(C(=O)c2ccco2)CC1`, for which the RP-LC retention time amounted to 764 s.

Turning to `CCCn1nc2n(c1=O)CCN(Cc1cn[nH]c1-c1ccc(OCC)c(Cl)c1)C2`, the RP-LC retention time is 708 s.

Regarding `COC(=O)c1ncn2c1C(=O)N(c1ccc(F)cc1)C(C)(C(=O)NCc1ccc(C)cc1)C2` (stereo not given), the RP-LC retention time came out at 732 s.

In turn, `CCOC(=O)c1noc2nc(C)nc(NCc3ccc(Cl)cc3)c12` yielded an RP-LC retention time of 1160 s.

Regarding `Cc1cc(C)n(C(C)CC(=O)N2CCN(S(=O)(=O)c3ccc(Cl)cc3)CC2)n1` (stereo not given), the RP-LC retention time came out at 750 s.

In turn, `Cc1ccnc(N2CCC(C(=O)Nc3ccc(Br)cc3F)CC2)n1` yielded an RP-LC retention time of 811 s.

`Cc1ccccc1-c1nc(-c2ccc(-n3cccn3)nc2)no1` yielded an RP-LC retention time of 1310 s.

With `CCN1CCCn2nc(C3CCN(C(=O)c4ccc5c(c4)OCO5)CC3)cc2C1=O`, the RP-LC retention time is 628 s.

`COc1cccc(Nc2n[nH]nc2C(=O)Nc2ccccc2Br)c1` registered an RP-LC retention time of 1060 s.

Compound `CCn1c(C(=O)N2CCN(c3ccc(F)cc3)CC2)cc2c(-c3cccs3)nn(-c3ccccc3)c21` yielded an RP-LC retention time of 1220 s.

In the case of `Cc1ccn2c(NC(=O)c3ccc(C)c(C)c3)c(-c3ccccc3)nc2c1`, the RP-LC retention time was 709 s.

`CC1CCN(C(=O)c2ccc3c(c2)N(CC(=O)N2CCCC2)C(=O)CO3)CC1` gave an RP-LC retention time of 703 s.
